{"source": "patent US11596622B2", "about": "“Mazindol treatment for heroin dependence and substance use disorder” (NLS Pharmaceutics AG, priority 2017, dated 2023)", "key": {"5-HT1A(h)": {"biological_target": "T1, 5-HT1A(h) (Homo sapiens, UniProt P08908)", "T1 construct": "Eurofins CEREP", "T1 sequence (P08908 1-422)": "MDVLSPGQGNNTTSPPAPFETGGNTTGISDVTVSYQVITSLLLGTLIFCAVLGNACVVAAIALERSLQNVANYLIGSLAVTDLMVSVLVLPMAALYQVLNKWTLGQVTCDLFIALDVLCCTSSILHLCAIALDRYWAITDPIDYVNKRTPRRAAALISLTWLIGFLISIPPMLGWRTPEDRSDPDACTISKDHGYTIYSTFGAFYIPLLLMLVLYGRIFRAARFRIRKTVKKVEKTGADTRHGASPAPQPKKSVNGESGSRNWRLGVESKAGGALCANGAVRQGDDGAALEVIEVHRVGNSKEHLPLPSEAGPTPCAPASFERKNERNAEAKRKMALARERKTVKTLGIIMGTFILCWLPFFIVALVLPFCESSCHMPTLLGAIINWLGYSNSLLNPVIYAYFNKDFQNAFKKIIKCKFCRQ", "experiment": "Radioligand binding, 5-HT1A (Eurofins CEREP)", "conditions": "1.0 × 10^−05 M; agonist radioligand; read-out: percent inhibition of the binding of a radioactively labeled ligand", "text": "Table A discloses mazindol and Met tested at […] and the compound binding calculated as a percent inhibition of the binding of a radioactively labeled ligand specific for each target (Eurofins CEREP, France).\nAn inhibition or stimulation of more than 50% is considered a significant effect of the test compounds. Fifty percent is a common cut-off for further investigation (i.e. determination of IC50 or EC50 values from concentration-response curves).\nThe results are expressed as a percent of control specific binding obtained in the presence of the test compounds:\n[formula] and as a percent inhibition of control specific binding obtained in the presence of the test compounds: […]"}, "[1]": {"test_system": "cocaine abuse and dependence", "conditions": "studies (7, 8); vs. placebo; cited from earlier work"}, "[2]": {"conditions": "cited from earlier work"}}}
{"smiles": "OC1(c2ccc(Cl)cc2)c2ccccc2C2=NCCN21", "note": "(centres unmarked) [Mazindol, 5-(4-chlorophenyl)-2,5-dihydro-3 H-imadazo[2,1-a]isoindol-5-ol]", "values": [{"measurement": "inhibition at 10 µM", "setting": "5-HT1A(h)", "result": 89.5, "unit": "%"}, {"measurement": "efficacy in treating cocaine abuse and dependence", "setting": "[1]", "result": "ineffective"}, {"measurement": "linearity of pharmacokinetics", "setting": "[2]; between 1 mg/day and 4 mg/day, immediate release formulations", "result": "linear (independent of the dose)"}, {"measurement": "half-life time", "setting": "[2]; immediate release formulation, healthy volunteers (Kim 2009)", "result": "9.1 ± 1.7", "unit": "h"}, {"measurement": "time to maximum concentrations (Tmax)", "setting": "[2]; single or repeated oral administration, U.S. Pat. No. 8,293,779", "result": "2 to 4", "unit": "h"}]}
